Results on one molecule are retold here after US6251882A, “Alkyl ketones as potent anti-cancer agents” (Parker Hughes Institute, priority 1999, dated 2001).

Type in all cases: cell-based, human
The test system of assay [1] is U373 glioblastoma cells. The assay is described as follows: Adhesion assay to ECM proteins, U373. As to conditions: laminin, fibronectin or type IV collagen; 16 hours (FIG. 7). The method, then: A human brain tumor cell line derived from an adult patient with glioblastoma, U-373 MG (Cat. #HTB-17) and MDA-MB-231 breast cancer cells (Cat. #HTB-26) were obtained from American Type Culture Collection (ATCC, Manassas, Va.) and maintained in liquid culture using DMEM supplemented with 10% fetal bovine serum and antibiotics. Fibroblast conditioned medium was used as a source of chemoattractant in vitro invasion assays. Conditioned medium was prepared as described previously (Albini, et al., 1987, Cancer Res., 47:3239-3245). […]
In adhesion assays, cells were centrifuged, washed twice with serum-free DMEM, counted and resuspended in serum-free DMEM to a final concentration of 2.5×10^5 cells/ml. […] The adherent fraction was quantitated using MTT (3-[4,5-dimethylthiazol-2-yl]-2,5-diphenyltetrazolium bromide) assays. […] The absorbance of each well was measured in a microplate reader (Labsystems) at […] and a reference wavelength of 690 nm. […] The adherent fraction of cells treated with HI-131 was compared to the DMSO-treated control cells and the percent adhesion relative to the control was determined.
Each treatment condition was evaluated in duplicate in 3 independent experiments. The IC50 values were calculated by non-linear regression analysis.

The subject of assay [2] is U373 glioblastoma cells. The assay is described as follows: Cell invasion assay (Matrigel-coated Boyden chambers), U373. As to conditions: through Matrigel matrix, 1 μM to 25 μM, 48 hours (FIG. 5). The method, then: (§1) The in vitro invasiveness of MDA-MB-231 breast cancer cells and U373 glioblastoma cells was assayed using a previously published method which employs Matrigel-coated Costar 24-well transwell cell culture chambers ("Boyden chambers") with 8.0-μm-pore polycarbonate filter inserts (Albini, et al., 1987, Cancer Res., 47:3239-3245). The chamber filters were coated with 50 μg/ml of Matrigel matrix, incubated overnight at room temperature under a laminar flow hood and stored at 4° C. Matrigel matrix is made up of several components of the extracellular matrix (ECM), including collagens, laminin and proteo-glycans.
(§2) On the day of the experiment, the coated inserts were rehydrated with 0.5 ml serum-free DMEM containing 0.1% bovine serum albumin for 1-2 hours. […] The cells were trypsinized, washed twice with serum-free DMEM containing BSA, counted and resuspended at 1×10^5 cells/ml. […] The invasive cells that migrated to the lower side of the filter were fixed, stained with Hema-3 solutions and counted under microscope. Five to 10 random fields per filter were counted to determine the mean (SE) values for the invasive fraction. The invasive fractions of cells treated with HI-131 were compared to those of DMSO treated control cells and the percent invading relative to the control was determined using the formula: [formula]
(§3) Each treatment condition was evaluated in duplicate in 3 independent experiments. […]

For assay [3], the system named is MDA-MB-231 breast cancer cells. The assay is described as follows: Cell invasion assay (Matrigel-coated Boyden chambers), MDA-MB-231. As to conditions: through Matrigel matrix, 2.5 μM to 25 μM, 48 hours (FIG. 4). The procedure:
as §1, §2, §3

For the molecule `CCCCCCCCCCCCSC[C@H](NC(C)=O)C(=O)CCl` [HI-131, N-Ac-S-dodecyl-Cys chloromethyl ketone], the “loss of adhesion, U373” value with U373 glioblastoma cells [1] is on record as “dose-dependent loss of adhesion”. Also, in the assay on U373 glioblastoma cells [2], the “inhibition of invasion, U373” value was “inhibited the invasion”. Further, the “inhibition of invasion, MDA-MB-231” value in assay [3] was “inhibited the invasion”.
